Test results taken from US4667020A, “Aromatic disazo dyes and liquid-crystalline materials containing these dyes” (BASF Aktiengesellschaft, priority 1984, dated 1987).

What was measured:
[1] = solubility L in liquid crystal mixture; assay type: physicochemical; settings: 1 week stirring
Procedure: (§1) The degree of order S measured at room temperature, the solubility L, likewise determined at room temperature, and the Merck liquid crystal mixtures used are summarized in Table 1 for the Examples 1, 2 and 4-12.
The solubility was determined as follows:
50 mg of the particular dye were stirred in 1 ml of liquid-crystalline mixture for 1 week at room temperature, the saturated solution was separated from the residue by centrifuging, and the solubility was determined by comparison of the extinctions.

[2] = degree of order S in liquid crystal mixture; assay type: physicochemical
Procedure: as §1
The degree of order S was determined in commercial measuring cells with a homogeneous edge orientation, using the known equation [formula] (polyimide). The dichroic ratio CR was determined by measuring the extinctions E.parallel. (measurement with light polarized parallel to the preferred direction of the nematic phase) and E.perp. (measurement with light polarized at right angles to the preferred direction of the nematic phase) and using the relationship [formula] the dye concentration being chosen so that E.parallel. was from 1 to 2. The measurements were carried out on a Beckmann Acta CIII spectrophotometer.

[3] = liquid crystal mixture ZLI 1957/5
[4] = liquid crystal mixture ZLI 1840
[5] = liquid crystal mixture ZLI 2452

Row | SMILES | Solubility L (at room temp.) [1, 3] | Degree of order S (at room temp.) [2, 3] | Solubility L (at room temp.) [1, 4] | Degree of order S (at room temp.) [2, 4] | Solubility L (at room temp.) [1, 5] | Degree of order S (at room temp.) [2, 5]
1 | Cc1cc(N=Nc2ccc(N(C)C)cc2)c(C)cc1N=Nc1ccc(-c2nnc(SCc3ccccc3)s2)cc1 [Example 4] |  |  | < 0.2% | 0.78 |  | 
2 | CCCCC(CC)c1nnc(-c2ccc(N=Nc3ccc(N=Nc4ccc(NCC)c5ccccc45)c4ccccc34)cc2)o1 (stereo not drawn) [Example 12] | 0.8% | 0.71 |  |  |  | 
3 | CCCCCCCC(C)Sc1nnc(-c2ccc(N=Nc3ccc(N=Nc4ccc(OCc5ccc(C6CCC(CCCC)CC6)cc5)cc4C)c4ccccc34)cc2)s1 (stereo not drawn) [Example 19] | > 5% | 0.77 |  |  | > 5% | 0.84
4 | CCCCC1CCC(c2ccc(COc3ccc(N=Nc4ccc(N=Nc5ccc(-c6nnc(SCC(CC)CCCC)s6)cc5)c5ccccc45)c(C)c3)cc2)CC1 (stereo not drawn) [Example 18] |  |  |  |  | 3.1% | 0.82
5 | CCCCc1nnc(-c2ccc(N=Nc3cc(C)c(N=Nc4ccc(N(C)CCCC)cc4)cc3C)cc2)o1 [Example 5] | 1.3% | 0.73 | 1.4% | 0.73 |  | 
6 | CCCCc1nnc(-c2ccc(N=Nc3cc(C)c(N=Nc4ccc(OCc5ccc(C6CCC(CC)CC6)cc5)cc4C)cc3C)cc2)o1 (stereo not drawn) [Example 1] | 1.3% | 0.76 | 1.6% | 0.76 |  | 
7 | CCCCSc1nnc(-c2ccc(N=Nc3cc(C)c(N=Nc4ccc(N(C)CCCC)cc4)cc3C)cc2)s1 [Example 2] | 1.1% | 0.74 |  |  |  | 
8 | CCOC(=O)c1sc(-c2ccc(N=Nc3ccc(N=Nc4ccc(N(C)C)cc4)c4ccccc34)cc2)nc1C [Example 7] |  |  | 1.4% | 0.74 |  | 
9 | CCCCC(CC)c1nnc(-c2ccc(N=Nc3cc(C)c(N=Nc4ccc(N(C)CCCC)cc4)cc3C)cc2)o1 (stereo not drawn) [Example 6] | > 5% | 0.68 |  |  |  | 

Other lines, results leading:

Row | Solubility L (at room temp.) [1, 3] | Degree of order S (at room temp.) [2, 3] | Solubility L (at room temp.) [1, 4] | Degree of order S (at room temp.) [2, 4] | Solubility L (at room temp.) [1, 5] | Degree of order S (at room temp.) [2, 5] | SMILES
10 | 1.2% | 0.74 |  |  |  |  | CCCCc1nnc(-c2ccc(N=Nc3ccc(N=Nc4ccc(N(C)CCCC)cc4)c4ccccc34)cc2)o1 [Example 10]
11 | 0.7% | 0.77 |  |  |  |  | CCCCCCCCSc1nnc(-c2ccc(N=Nc3ccc(N=Nc4ccc(N(C)CCCC)cc4)c4ccccc34)cc2)s1 [Example 14]
12 | 0.5% | 0.78 | 1.3% | 0.76 |  |  | CCCCSc1nnc(-c2ccc(N=Nc3ccc(N=Nc4ccc(N(C)C)cc4)c4ccccc34)cc2)s1 [Example 8]
13 | 0.3% | 0.77 | 0.6% | 0.79 |  |  | CCCCSc1nnc(-c2ccc(N=Nc3ccc(N=Nc4ccc(N(C)CCCC)cc4)c4ccccc34)cc2)s1 [Example 9]
14 | > 5% | 0.74 |  |  |  |  | CCCCC(CC)c1nnc(-c2ccc(N=Nc3ccc(N=Nc4ccc(N(C)CCCC)cc4)c4ccccc34)cc2)o1 (stereo not drawn) [Example 11]
15 |  |  |  |  | > 5% | 0.81 | CCCCCCCC(C)Sc1nnc(-c2ccc(N=Nc3ccc(N=Nc4ccc(N(C)CCCC)cc4)c4ccccc34)cc2)s1 (stereo not drawn) [Example 16]
16 |  |  |  |  | > 5% | 0.8 | CCCCC(CC)CSc1nnc(-c2ccc(N=Nc3ccc(N=Nc4ccc(N(C)CCCC)cc4)c4ccccc34)cc2)s1 (stereo not drawn) [Example 15]
